Our source for the IC50 and EC50 values is patent publication US7772177B2, “BIR domain binding compounds” (Aegera Therapeutics, Inc., priority 2005, dated 2010).

One test deals with T1, GST-HIAP1(cIAP-2) BIR 3 (Homo sapiens, UniProt Q13489).
T1 construct: made in house; host or cells: E. coli DH5-alpha
The test is described as follows: Fluorescence polarization-based competition assay, cIAP-2 Bir3. In kind it is binding. In a few lines: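 GST-cIAP-2 BIR3 (aa 236-349, E. coli-expressed) at a pre-titrated fixed level, with fluorescein-labelled AVPF-peptide probe and 10-point compound dilutions in 50 mM MES pH 6.5 with BSA. Fluorescence polarization read at Ex 485/Em 535 nm; IC50 from curve fit, Ki derived per Nikolovska-Coleska equation.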

The test system of the next test is MDA-MB-231 cells. The test is described as follows: Survival assay (MTS) on MDA-MB-231 cells. As to conditions: Homo sapiens, 72 hours, read-out: EC50 MDA-MB-231 breast derived cell line. In kind it is cell-based. As for the experimental part: MDA-MD-231 (breast) and H460 (lung) cancer cells were cultured in RPMI1640 media supplemented with 10% FBS and 100 units/mL of Penicillin and Steptomycin.
Survival assays were routinely done on MDA-MB-231 and H460 cells. Cells were seeded in 96 well plates at a respective density of 5000 and 2000 cells per well and incubated at 37° C. in presence of 5% CO2 for 24 hours. Selected compounds were diluted into the media at various concentration ranging from 0.01 uM up to 100 uM. Diluted compounds were added onto the MDA-MB-231 cells. For H460 cells, the compounds were added either alone or in presence of 3 ng/ml of TRAIL. After 72 hours cellular viability was evaluated by MTS based assays. A solution of [3-(4,5-dimethylthiazol-2-yl)-5-(3-carboxymethoxyphenyl)-2-(4-sulfophenyl)-2H-tetrazolium, inner salt; MTS] was added onto cells for a period of 1 to 4 hours. Upon incubation the amount of converted MTS was evaluated using a Tecan spectrophotometer set at 570 nm.

A further test deals with T2, GST-HIAP2 (cIAP-1) BIR 3 (Homo sapiens, UniProt Q13490).
T2 construct: made in house; host or cells: E. coli DH5-alpha
The test is described as follows: Fluorescence polarization-based competition assay, cIAP-1 Bir3. The class given is binding. A digest of the protocol: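 GST-cIAP-1 BIR3 (aa 251–363, E. coli) at a titrated fixed level, combined with fluorescein-labelled peptide probe and a 10-point compound series in 50 mM MES pH 6.5 with BSA. Polarization read at ex 485/em 535 nm; IC50 fitted, and Ki derived using the Nikolovska-Coleska equation.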

The target of another test is T3, GST-XIAP BIR3RING (Homo sapiens, UniProt P98170).
T3 construct: made in house; host or cells: E. coli DH5-alpha
In words: Fluorescence polarization-based competition assay, XIAP Bir3-RING. The class given is binding. A digest of the protocol:
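Competitive fluorescence polarization with GST-XIAP BIR3-RING (aa 246-497, E. coli-expressed) and a fluorescein-labelled peptide probe in 50 mM MES pH 6.5 with BSA; protein fixed at titrated linear-signal level. Compound autofluorescence and quenching checked; IC50 from 10-point dilutions, Ki derived by Nikolovska-Coleska equation.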

Test [1] has as its target T4, XIAP Bir2-Bir3-RING (GST-linker BIR2 BIR3RING) (Homo sapiens, UniProt P98170).
T4 construct: made in house; host or cells: E. coli DH5-alpha
The test is described as follows: Caspase de-repression assay using cellular extracts (apoptosome), XIAP Bir2-Bir3-RING. In kind it is biochemical. As to conditions: 293 cell S100 extract. As for the experimental part:
(§1) 100 ug of 293 cell S100 extract and 0.25 uM-2 uM of GST-Xiap fusion protein (GST-BIR 3RING, GST-linker BIR2 BIR3RING) were co-incubated with serial dilutions of compound (0.02 uM-40 uM). Extracts were activated by adding 1 mM dATP, 0.1 mM ALLN, 133 ug Cytochrome C (final concentrations), and incubating at 37° C. for 25 minutes. All reactions and dilutions used S100 buffer (50 mM Pipes pH 7.0, 50 mM KCl, 0.5 mM EGTA pH 8.0, 2 mM MgCl2 supplemented with 1/1000 dilutions of 2 mg/ml Cytochalisin B, 2, mg/ml Chymotstatin, Leupeptin, Pepstatin, Antipain, 0.1M PMSF, 1M DTT). Final reaction volume was 30 ul. Caspase-3 activity was measured by overlaying 30 ul of a 0.4 mM DEVD-AMC solution. AMC cleavage was measured in a TECAN spectrophotometer at 360 nm excitation and 444 nm emission, on a kinetic cycle of 1 hour with readings taken every 5 minutes. Caspase activity was calculated as Vo of AMC fluorescence/sec. Caspase de-repression by our compounds were compared to fully activated extract and activated extract repressed by the presence of XIAP fusion protein.
(§2) Results: Compounds were also tested in the apoptosome assay and the linker-BIR2/caspase-3 inhibition assay and found to have IC50s in the following ranges: A: >10 μM; B: <10 μM; C: <1 μM, as shown in Table 7.

The target in test [2] is T5, XIAP Bir3-RING (GST-BIR 3RING) (Homo sapiens, UniProt P98170).
T5 construct: made in house; host or cells: E. coli DH5-alpha
In words: Caspase de-repression assay using cellular extracts (apoptosome), XIAP Bir3-RING. The class given is biochemical. Particulars: 293 cell S100 extract. How it is done: as §1, §2

Test [3] deals with T6, caspase-3 inhibited by linker BIR2-BIR3-RING of XIAP (Homo sapiens, UniProt P98170).
T6 construct: made in house; host or cells: E. coli DH5-alpha (GST-XIAP); E. coli AD494 (His-caspase-3)
In words: Caspase-3 linker-BIR2-BIR3-RING derepression assay. In kind it is biochemical. How it is done:
In order to determine the relative activity of the selected compound against BIR2, an in vitro assay was used where caspase-3 was inhibited by linker-BIR2 or linker BIR2-BIR3-RING of XIAP. Briefly, 1.5 ul of the enzyme, 0.25 uM to 2 uM of GST-Xiap fusion protein (GST-linker BIR2, GST-linker BIR2BIR3RING) were co-incubated with serial dilutions of compound (80 uM-0.04 uM). Caspase 3 activity was measured by overlaying 25 ul of a 0.4 mM DEVD-AMC solution. Final reaction volume was 100 ul. All dilutions were performed in caspase buffer (50 mM Hepes pH 7.4, 100 mM NaCl, 10% sucrose, 1 mM EDTA, 10 mM DTT, 0.1% CHAPS (Stennicke, H. R., and Salvesen, G. S. (1997). Biochemical characteristics of caspase-3, -6, -7, and -8. J. Biol. Chem. 272, 25719-25723)).
The fluorescent AMC released from the caspase-3 hydrolysis of the substrate was measured in a TECAN spectrophotometer at 360 nm excitation and 444 nm emission, on a kinetic cycle of 30 minutes with readings taken every 2 minutes. Caspase activity was calculated as Vo of AMC fluorescence/sec. Caspase de-repression by our compounds were compared to caspase-3 alone and caspase 3 repressed by the presence of XIAP fusion protein.
as §2

pEC50, pIC50: −log10 of the molar value.

T2 sequence (Q13490 251-363): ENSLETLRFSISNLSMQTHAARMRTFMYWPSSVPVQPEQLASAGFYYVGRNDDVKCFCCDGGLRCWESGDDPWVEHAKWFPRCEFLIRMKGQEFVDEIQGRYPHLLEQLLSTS
T3 sequence (P98170 246-497): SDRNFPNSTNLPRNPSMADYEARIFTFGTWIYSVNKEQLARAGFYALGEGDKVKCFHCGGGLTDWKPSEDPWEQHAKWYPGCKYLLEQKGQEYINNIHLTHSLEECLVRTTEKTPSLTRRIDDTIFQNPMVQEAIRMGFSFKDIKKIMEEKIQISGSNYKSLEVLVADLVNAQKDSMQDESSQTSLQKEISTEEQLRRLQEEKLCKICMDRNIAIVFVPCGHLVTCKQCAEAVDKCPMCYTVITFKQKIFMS
T5 sequence (P98170 246-497): as above
T6 sequence (P98170 93-497): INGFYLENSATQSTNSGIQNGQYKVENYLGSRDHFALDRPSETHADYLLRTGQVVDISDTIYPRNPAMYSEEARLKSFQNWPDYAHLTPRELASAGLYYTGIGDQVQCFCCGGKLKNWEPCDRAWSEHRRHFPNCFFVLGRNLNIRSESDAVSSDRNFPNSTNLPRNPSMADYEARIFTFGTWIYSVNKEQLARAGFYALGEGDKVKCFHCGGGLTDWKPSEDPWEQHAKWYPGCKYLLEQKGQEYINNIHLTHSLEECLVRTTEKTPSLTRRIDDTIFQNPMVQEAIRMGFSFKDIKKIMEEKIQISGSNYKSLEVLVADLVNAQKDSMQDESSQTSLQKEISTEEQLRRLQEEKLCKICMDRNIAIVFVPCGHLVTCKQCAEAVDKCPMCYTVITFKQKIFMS
T4 sequence (P98170 93-497): as above
T1 sequence (Q13489 236-349): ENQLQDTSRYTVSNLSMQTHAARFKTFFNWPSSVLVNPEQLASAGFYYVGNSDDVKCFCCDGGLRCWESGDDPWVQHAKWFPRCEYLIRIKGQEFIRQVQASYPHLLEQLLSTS

As for `CN[C@@H](C)C(=O)N[C@H](C(=O)N1CCC[C@H]1CN(CCc1ccccc1)C(=O)CCCc1ccccc1)C(C)(C)C` [Compound 48], the pIC50 at GST-HIAP1(cIAP-2) BIR 3, at GST-HIAP2 (cIAP-1) BIR 3 and at GST-XIAP BIR3RING was more than 6.00 throughout. The pEC50 in the test with MDA-MB-231 cells was more than 5.30.

On to `CN[C@@H](C)C(=O)N[C@@H](CCc1ccccc1)C(=O)N1CCC[C@H]1CN(CCc1ccccc1)C(=O)[C@H](N)Cc1ccccc1` [Compound 89], for which the pEC50 in the test on MDA-MB-231 cells is more than 5.30.

On to `CN[C@@H](C)C(=O)N[C@H](C(=O)N1CCC[C@H]1CN(CCc1ccccc1)C(=O)[C@@H](Cc1ccccc1)NC)C(C)(C)C` [Compound 52], for which the pIC50 at GST-HIAP1(cIAP-2) BIR 3, on GST-HIAP2 (cIAP-1) BIR 3 and at GST-XIAP BIR3RING was more than 6.00 in each case. Besides, the pEC50 in the test on MDA-MB-231 cells is more than 5.30.

In the case of `CN[C@@H](C)C(=O)N[C@@H](CCc1ccccc1)C(=O)N1CCC[C@H]1CN(CCc1ccccc1)C(=O)[C@H](N)Cc1ccc(OC)cc1` [Compound 84], the pEC50 in the test with MDA-MB-231 cells was more than 5.30.

As for `CN[C@@H](C)C(=O)N[C@H](C(=O)N1CCC[C@H]1CN(CCc1ccccc1)C(=O)[C@H](N)Cc1ccc(F)cc1)C(C)(C)C` [Compound 53], the pIC50 at GST-HIAP1(cIAP-2) BIR 3, on GST-HIAP2 (cIAP-1) BIR 3 and at GST-XIAP BIR3RING was more than 6.00 each time. Besides, the pEC50 in the test on MDA-MB-231 cells is more than 5.30.

For the compound `CN[C@@H](C)C(=O)N[C@H](C(=O)N1CCC[C@H]1CN(CCc1ccccc1)C(=O)[C@@H](N)Cc1ccccc1)C(C)(C)C` [Compound 44], the pIC50 at GST-HIAP1(cIAP-2) BIR 3 was more than 6.00; at GST-HIAP2 (cIAP-1) BIR 3, more than 6.00; at GST-XIAP BIR3RING it was more than 5.00. Also, in the test with MDA-MB-231 cells, the pEC50 was more than 5.30.

`CN[C@@H](C)C(=O)N[C@H](C(=O)N1CCC[C@H]1CN(CCc1ccccc1)C(=O)CNCc1ccccc1)C(C)(C)C` [Compound 45]: the negative-log IC50 (pIC50) at GST-HIAP1(cIAP-2) BIR 3, at GST-HIAP2 (cIAP-1) BIR 3 and at GST-XIAP BIR3RING was more than 6.00 throughout. In addition, the pEC50 in the test with MDA-MB-231 cells is more than 5.30.

Take `CN[C@@H](C)C(=O)N[C@H](C(=O)N1CCC[C@H]1CNCCc1ccccc1)C(C)(C)C` [Compound 16]: the pIC50 in test [1] is less than 5.00; on GST-HIAP1(cIAP-2) BIR 3 it was more than 5.00; in test [2], more than 6.00; in test [3], less than 5.00; at GST-HIAP2 (cIAP-1) BIR 3 it was more than 6.00; at GST-XIAP BIR3RING it was more than 5.00. Further, the pEC50 in the test on MDA-MB-231 cells was more than 5.30.

With `CN[C@@H](C)C(=O)N[C@H](C(=O)N1CCC[C@H]1CN(CCc1ccccc1)C(=O)[C@H](N)Cc1ccccc1)C(C)(C)C` [Compound 42], the negative logarithm of the IC50 (pIC50) on GST-HIAP1(cIAP-2) BIR 3, on GST-HIAP2 (cIAP-1) BIR 3 and at GST-XIAP BIR3RING was more than 6.00 in each case. Besides, in the test on MDA-MB-231 cells, the pEC50 is more than 5.30.

Turning to `CN[C@@H](C)C(=O)N[C@H](C(=O)N1CCC[C@H]1CN(CCc1ccccc1)C(=O)c1ccc(F)cc1)C(C)(C)C` [Compound 75], in the test with MDA-MB-231 cells, the pEC50 was more than 5.30.

For the compound `CC(=O)N(Cc1ccccn1)C[C@@H]1CCCN1C(=O)[C@@H](NC(=O)[C@H](C)N)C(C)C` [Compound 8], the pIC50 was less than 5.00 in test [1]; more than 5.00 on GST-HIAP1(cIAP-2) BIR 3; more than 6.00 in test [2]; less than 5.00 in test [3]; more than 5.00 at GST-HIAP2 (cIAP-1) BIR 3; less than 5.00 on GST-XIAP BIR3RING.

As for `CC(C)[C@H](NC(=O)[C@H](C)N)C(=O)N1CCC[C@H]1CNCCc1ccccc1` [Compound 18], the pIC50 in test [1] is less than 5.00; on GST-HIAP1(cIAP-2) BIR 3, more than 6.00; in test [2], more than 6.00; in test [3] it was less than 5.00; on GST-HIAP2 (cIAP-1) BIR 3, more than 6.00; at GST-XIAP BIR3RING, more than 6.00.

Turning to `CCCC(=O)N(CCc1ccccc1)C[C@@H]1CCCN1C(=O)[C@@H](NC(=O)[C@H](C)N)C(C)C` [Compound 22], the pIC50 in test [1] was less than 5.00; on GST-HIAP1(cIAP-2) BIR 3, more than 6.00; in test [2] it was more than 6.00; in test [3] it was less than 5.00; at GST-HIAP2 (cIAP-1) BIR 3 it was more than 6.00; on GST-XIAP BIR3RING it was more than 6.00.
